The record followed here is US7317034B2, “Substituted C-furan-2-yl-methylamine and C-thiophen-2-yl-methylamine compounds” (Gruenenthal GmbH, priority 2001, dated 2008).

The experiment relates to binding site 2 of the sodium channel (BTX binding site). Description: Binding to the sodium channel, binding site 2 (BTX binding), [3H]-batrachotoxinin A20 α-benzoate displacement. To be noted: rat cerebrocortex synaptosomes; for BTX binding (10 μM): 10 μM test compound, ligand [3H]-batrachotoxinin A20 α-benzoate 10 nM, 120 min at 25° C.

For “5-[1-(2-Chloro-phenylamino)-2-oxo-2-phenyl-ethyl]-2-methyl-furan-3-carboxylic acid ethyl ester”, the “BTX binding (10 μM)” value was 40%.

For `COC(=O)c1cc(C(Nc2ccc(Cl)cc2F)C(=O)c2ccccc2)oc1C` (centres unmarked) [C, 5-[1-(4-Chloro-2-fluoro-phenylamino)-2-oxo-2-phenyl-ethyl]-2-methyl-furan-3-carboxylic acid methyl ester], the “BTX binding (10 μM)” value was 57%.

As for `CCOC(=O)c1cc(C(Nc2ccc(Cl)cc2C)C(=O)c2ccccc2)oc1C` (centres unmarked) [D, 5-[1-(4-Chloro-2-methyl-phenylamino)-2-oxo-2-phenyl-ethyl]-2-methyl-furan-3-carboxylic acid ethyl ester], the “BTX binding (10 μM)” value stood at 37%.

As to `COC(=O)c1cc(C(Nc2ccc(Cl)cc2C)C(=O)c2ccccc2)oc1C` (centres unmarked) [Example B, 5-[1-(4-Chloro-2-methyl-phenylamino)-2-oxo-2-phenyl-ethyl]-2-methyl-furan-3-carboxylic acid methyl ester], the “BTX binding (10 μM)” value came to 55%.

Usually Kd stands for the constant that tells how readily two partners part at equilibrium. As for “[3H]-batrachotoxinin A20 α-benzoate [reference compound]”, the Kd (radioligand [3H]-batrachotoxinin A20 α-benzoate, N=2, mean±SEM, read-out: KD value for that binding site) is 24.6 ± 1.56 nM.
